This note sets out measurements from US12642270B2, “Substituted thiophene carboxamides, thiophene carboxylic acids and derivatives thereof” (Bayer Aktiengesellschaft, priority 2019, dated 2026).

By inhibition is commonly meant the drop in the measured response relative to a control, in per cent. In general, chromatographic logP refers to lipophilicity estimated from chromatographic retention. Low readings indicate lower lipophilicity, high ones higher lipophilicity.

Data set [1] concerns Colletotrichum lindemuthianum. Put plainly: Example O: Colletotrichum lindemuthianum in vitro cell test, formula (II). The data set is classed as cell-based. Conditions: 144 h, 6 days incubation, read-out: efficacy (inhibition of fungal growth; no direct activity); for inhibition at 10 ppm: 10 ppm of active ingredient; for inhibition at 20 ppm: 20 ppm of active ingredient. The procedure:
• Solvent: DMSO • Culture medium: 14.6 g anhydrous D-glucose (VWR), 7.1 g Mycological Peptone (Oxoid), 1.4 g granulated Yeast Extract (Merck), QSP 1 liter • Inoculum: spores suspension Fungicides were solubilized in DMSO and the solution used to prepare the required range of concentrations. The final concentration of DMSO used in the assay was: ≤[…]1%. A spore suspension of C. lindemuthianum was prepared and diluted to the desired spore density. Fungicides were evaluated for their ability to inhibit spores germination and mycelium growth in liquid culture assay. The compounds were added in the desired concentration to the culture medium with spores. After 6 days incubation, fungi-toxicity of compounds was determined by spectrometric measurement of mycelium growth. Inhibition of fungal growth was determined by comparing the absorbance values in wells containing the fungicides with the absorbance in control wells without fungicides.

The test system of data set [2] is Xanthomonas campestris pv. campestris. The experiment in a line: Example P: Xanthomonas campestris pv. campestris in vitro cell test, formula (II). Type of data set: cell-based. The conditions noted are these: 20 ppm of active ingredient, 24 h incubation, read-out: efficacy (inhibition of bacteria growth; no direct activity). The procedure: • Solvent: DMSO • Culture medium: LB broth medium (Luria Broth Miller) Sigma • Inoculum: bacteria suspension
Compounds were solubilized in DMSO and the solution used to prepare the required range of concentrations. The final concentration of DMSO used in the assay was ≤1%.
Inoculum was prepared from a pre-culture of bacteria grown in liquid medium and diluted to the desired optical density (OD).
Compounds were evaluated for their ability to inhibit bacteria growth in liquid culture assay. The compounds were added in the desired concentrations to culture medium containing the bacteria suspension. After 24 h of incubation, the efficacy of compounds was determined by spectrometric measurement of bacteria growth. Inhibition was determined by comparing the absorbance values in wells containing the compounds with the absorbance in control wells without active ingredients.

Data set [3] can be described thus: Log P by HPLC on reversed phase columns (EEC directive 79/831 Annex V.A8). Type of data set: physicochemical. The conditions noted are these: for chromatographic logP: reversed phase HPLC columns. Put shortly: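 Reversed-phase HPLC per EEC 79/831 Annex V.A8, LC-UV with 10→95% acetonitrile linear gradient; eluent [a] 0.1% formic acid (acidic), [b] 0.001 M ammonium acetate (neutral), [c] 0.1% phosphoric acid (acidic). Calibrated with C3–C16 straight-chain alkan-2-ones, linear interpolation of retention times; multiple values joined by "+".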

For data set [4], the system named is salicylate responsive promoter sequence of the PR1 (pathogenesis-related protein I) gene (AT2G14610). Put plainly: Example A: induction of defense gene expression in Arabidopsis thaliana (PR1 promoter-GFP reporter plants), formula (I). Conditions: 300 ppm, 3rd day after spraying, mock treated leaves = 1.00. Type of data set: in vivo. The procedure:
(§1) Arabidopsis thaliana reporter plants containing the coding sequence of a green fluorescent protein (GFP) linked to the salicylate responsive promoter sequence of the PR1 (pathogenesis-related protein I) gene (AT2G14610) were grown for five days and then sprayed with compounds. On the 3rd day after spraying, plant fluorescence was assessed with a MacroFluo instrument from Leica Microsystems (Wetzlar, Germany). Fluorescences were quantified with the Meta-Morph Microscopy Automation & Image Analysis Software (Molecular Devices, Sunnyvale, Calif., United States).
(§2) Background fluorescence in mock treated leaves was set as 1.00.

The test system is the same in data set [5]. Put plainly: Example K: induction of defense gene expression in Arabidopsis thaliana (PR1 promoter-GFP reporter plants), formula (II). The data set is classed as in vivo. The conditions noted are these: 300 ppm, 3rd day after spraying, mock treated leaves = 1.00. As to the method: as §1, §2
The mark [6] stands for this setting: method [a]: LC-UV, acidic range, 0.1% formic acid in water and acetonitrile.
The mark [7] stands for this setting: value in preparation example, method not marked.
Where [8] appears, read: method marker [a] given with each value, Table 1.1, compounds of formula (I).
[9] abbreviates: method [a], compounds of formula (I), Table 1.1.
Where [10] appears, read: LogP method [a], compounds of formula (I), Table 1.1.

On to `Cc1c(C(=O)O)sc(C#N)c1Br` [II.042, 4-bromo-5-cyano-3-methylthiophene-2-carboxylic acid], for which the inhibition at 10 ppm in data set [1] was at most 30%. The inhibition at 20 ppm in data set [1] and in data set [2] was at most 30% in each case. In addition, the chromatographic logP in data set [3] (setting [6]) worked out at 2.01.
Consider `COC(=O)c1cc(Cl)c(C#N)s1` [II.046, methyl 4-chloro-5-cyanothiophene-2-carboxylate], for which, in data set [1], the inhibition at 10 ppm is at most 30%. Moreover, the inhibition at 20 ppm in data set [1] and in data set [2] was at most 30% throughout. In addition, the chromatographic logP in data set [3] (setting [6]) and in data set [3] (setting [7]) was 2.52 each time.
Consider `COC(=O)c1sc(Cl)c(C#N)c1C` [II.028, methyl 5-chloro-4-cyano-3-methylthiophene-2-carboxylate], for which, in data set [1], the inhibition at 10 ppm was at most 30%. For the same molecule, the inhibition at 20 ppm in data set [1] and in data set [2] was at most 30% throughout. The chromatographic logP is 2.98 in data set [3] (setting [6]) and 3.01 in data set [3] (setting [7]).
Regarding `O=C(O)c1ccccc1O` [Salicylic acid], the relative fluorescence value in data set [4] and in data set [5] was 2.70 each time.
For `O=C(O)c1sc(Br)c(Cl)c1Cl` [II.010], in data set [3] (setting [6]), the LogP is 2.51^[a].
Regarding `CCOC(=O)C1(NC(=O)c2sc(Cl)c(Br)c2C)CSC1` [1.1057], the LogP in data set [3] (setting [8]) is 3.66^[a].
With `N#CC1(NC(=O)c2sc(Br)c(Br)c2Cl)CCC(C2CCCCC2)CC1` (centres unmarked) [I.0869], the LogP in data set [3] (setting [6]) is 6.46^[a].
As for `NC(=S)C1(NC(=O)c2sc(Br)c(Br)c2F)CC1` [1.0900], the LogP in data set [3] (method [a]) is 2.42^[a].
For the molecule `CCOC(=O)C1(NC(=O)c2sc(Cl)c(Cl)c2Br)CCC1` [1.0085], the LogP in data set [3] (setting [9]) was 4.23^[a].
In the case of `COC(=O)C(CCSC)NC(=O)c1sc(Br)c(Br)c1F` (centres unmarked) [1.0434], the LogP in data set [3] (setting [10]) is 3.57^[a].
Consider `O=C(NC1(C(=O)O)CCC1)c1sc(Br)c(Br)c1F` [1.0172], for which the LogP in data set [3] (method [a]) was 2.62^[a].
On to `COC(=O)CNC(=O)c1cc(Cl)c(C#N)s1` [1.0385], for which the LogP in data set [3] (method marked [a]) is 1.77^[a].
Turning to `CC(C)C(NC(=O)c1sc(Br)c(Br)c1F)C(=O)O` (centres unmarked) [1.0234], in data set [3] (method [a]), the LogP is 2.97^[a].
`CCNC(=O)SC[C@H](NC(=O)c1sc(Br)c(Br)c1F)C(=O)OC` [1.0543]: in data set [3] (method [a]), the LogP is 3.10^[a].
On to `COC(=O)CNC(=O)c1sc(C#N)c(Cl)c1Cl` [1.0571], for which, in data set [3] (method [a]), the LogP was 2.20^[a].
For `CCOC(=O)C(CO)NC(=O)c1sc(Br)c(Br)c1C(F)F` (centres unmarked) [1.1064], the LogP in data set [3] (setting [8]) is 2.63^[a].
With `COC(=O)C(NC(=O)c1sc(C#N)c(Br)c1C)C1CC1` (centres unmarked) [1.0261], the LogP in data set [3] (method [a]) is 2.75^[a].
Take `N#Cc1c(C(=O)NCC(N)=O)sc(Cl)c1Cl` [1.0916]: in data set [3] (method [a]), the LogP was 1.47^[a].
Regarding `CCOC(=O)C(CCSC)NC(=O)c1cc(Br)c(Cl)s1` (centres unmarked) [1.0238], in data set [3] (method [a]), the LogP is 3.65^[a].
Consider `Cc1c(C(=O)NC2CCSC2=O)sc(Cl)c1Br` (centres unmarked) [I.0023], for which, in data set [3] (method [a]: LC-UV, acidic range, 0.1% formic acid in water and acetonitrile, listed as 1.0023), the LogP is 2.99^[a].
For the molecule `CCOC(=O)C(Cc1ccccc1)NC(=O)c1sc(C(F)F)c(Br)c1Br` (centres unmarked) [1.0516], the LogP in data set [3] (setting [10]) is 4.48^[a].
Take `COC(=O)C1(NC(=O)c2sc(C#N)c(Br)c2C)CCC1` [1.0680]: the LogP in data set [3] (method marked [a]) was 2.71^[a].
Consider `CCOC(=O)C(CO)NC(=O)c1sc(Br)c(Cl)c1C` (centres unmarked) [1.0844], for which the LogP in data set [3] (method [a]) was 2.60^[a].
On the same count and under the same terms, next, `COC(=O)C1(NC(=O)c2sc(Cl)c(Br)c2Cl)CC1` [1.0595]: 3.11^[a].
With `COC(=O)CNC(=O)c1cc(C#N)c(Br)s1` [1.0399], the LogP in data set [3] (method marked [a]) is 1.79^[a].
For the molecule `COC(=O)c1sc(Cl)c(Cl)c1C#N` [II.085, methyl 4,5-dichloro-3-cyanothiophene-2-carboxylate], the inhibition at 10 ppm in data set [1] was at most 30%. Further, the inhibition at 20 ppm in data set [1] and in data set [2] was at most 30% each time. Moreover, the chromatographic logP in data set [3] (setting [6]) and in data set [3] (setting [7]) was 2.98 throughout.
In the case of `COC(=O)CNC(=O)c1sc(Br)c(Cl)c1Cl` [1.0194], the LogP in data set [3] (method [a]) was 2.86^[a].
On the same count and under the same terms, then `COC(=O)C1(NC(=O)c2sc(Cl)c(Br)c2C#N)CCC1` [1.0629], with 2.82^[a].
Consider `COC(=O)c1sc(C#N)c(Br)c1C` [II.051], for which the LogP in data set [3] (setting [6]) is 3.19^[a].
Consider `CCNC(=O)SC[C@H](NC(=O)c1sc(Cl)c(Cl)c1Br)C(=O)OC` [1.0530], for which the LogP in data set [3] (method [a]) was 3.39^[a].
Turning to `CC(C)(NC(=O)c1sc(Cl)c(Cl)c1Br)C(=O)O` [1.1024], the LogP in data set [3] (setting [8]) is 2.80^[a].
As for `Cc1c(C(=O)NC(C(=O)O)C2CC2)sc(Cl)c1Br` (centres unmarked) [1.0255], the LogP in data set [3] (method [a]) is 2.67^[a].
Same read-out and setting: then `O=C(CNC(=O)c1sc(Br)c(Br)c1F)Oc1ccccc1` [1.0863], with 3.58^[a].
Turning to `COC(=O)c1cc(Cl)c(Br)s1` [II.047], the LogP in data set [3] (setting [6]) was 3.29^[a].
Turning to `CCOC(=O)C(Cc1ccccc1)NC(=O)c1sc(Cl)c(Cl)c1C#N` (centres unmarked) [1.0685], the LogP in data set [3] (method marked [a]) is 3.98^[a].
Turning to `CCOC(=O)C1(NC(=O)c2sc(C(F)F)c(Br)c2Br)CCC1` [1.0518], in data set [3] (setting [10]), the LogP is 3.75^[a].
Regarding `CCOC(=O)CNC(=O)c1sc(I)c(Br)c1C` [1.0096], the LogP in data set [3] (setting [9]) is 3.02^[a].
With `CCOC(=O)C1(NC(=O)c2sc(Br)c(Br)c2C#N)CCC1` [1.0815], the LogP in data set [3] (method [a]) is 3.23^[a].
`N#CCCOC(=O)CNC(=O)c1sc(Br)c(Br)c1Cl` [1.0984]: the LogP in data set [3] (setting [8]) was 2.76^[a].
For `CCOC(=O)C(CSC)NC(=O)c1sc(Br)c(Cl)c1C` (centres unmarked) [1.0756], in data set [3] (method marked [a]), the LogP was 3.94^[a].
As to `CCOC(=O)C(C)(C)NC(=O)c1sc(Cl)c(Cl)c1Br` [I.1062, ethyl N-[(3-bromo-4,5-dichloro-2-thienyl)carbonyl]-2-methylalaninate], the chromatographic logP in data set [3] (setting [7]) came out at 4.24.
Regarding `COC(=O)C(CC(=O)OC(C)(C)C)NC(=O)c1sc(Br)c(Br)c1Cl` (centres unmarked) [1.0528], in data set [3] (setting [10]), the LogP was 4.55^[a].
As to `CCOC(=O)C(Cc1ccccc1)NC(=O)c1sc(Br)c(Cl)c1Cl` (centres unmarked) [1.0204], the LogP in data set [3] (method [a]) was 5.00^[a].
